# In PMC9937012 (Journal of Enzyme Inhibition and Medicinal Chemistry, 2023):
# What was measured:
# human H1R = human H1R (Homo sapiens, UniProt P35367); assay: Human H1R radioligand displacement assay; format: binding; details: for inhibition at 10 µM: read-out: hH1R Inhibition at 10 µM [%] ±SD (n); for inhibition at 1 µM: read-out: hH1R Inhibition at 1 µM [%] (n)
# human AChE = human AChE (Homo sapiens, UniProt P22303); assay: Inhibition of AChE; format: biochemical; details: for inhibition at 10 µM: read-out: AChE Inhibition at 10 µM [%]
# Chain of human AChE (P22303 32-614): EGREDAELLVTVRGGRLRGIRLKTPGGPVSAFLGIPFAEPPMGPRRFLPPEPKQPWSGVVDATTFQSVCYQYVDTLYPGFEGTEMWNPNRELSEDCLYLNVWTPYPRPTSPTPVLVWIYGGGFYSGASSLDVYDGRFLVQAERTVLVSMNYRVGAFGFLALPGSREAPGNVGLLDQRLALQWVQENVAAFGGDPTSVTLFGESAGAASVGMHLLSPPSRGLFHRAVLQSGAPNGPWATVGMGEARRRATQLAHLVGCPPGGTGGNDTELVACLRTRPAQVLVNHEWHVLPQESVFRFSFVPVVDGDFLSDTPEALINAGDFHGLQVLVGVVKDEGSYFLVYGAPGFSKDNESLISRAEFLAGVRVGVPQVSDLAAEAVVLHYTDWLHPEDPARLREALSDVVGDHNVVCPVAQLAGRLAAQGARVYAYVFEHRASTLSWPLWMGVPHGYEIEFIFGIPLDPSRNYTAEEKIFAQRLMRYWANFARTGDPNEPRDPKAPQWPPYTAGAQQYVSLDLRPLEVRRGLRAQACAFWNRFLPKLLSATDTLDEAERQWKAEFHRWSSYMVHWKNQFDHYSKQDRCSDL
# human H4R = human H4R (Homo sapiens, UniProt Q9H3N8); assay: Human H4R radioligand displacement assay; details: read-out: hH4R Inhibition at 10 µM [%] (n)
# Chain of human H4R (Q9H3N8 whole entry): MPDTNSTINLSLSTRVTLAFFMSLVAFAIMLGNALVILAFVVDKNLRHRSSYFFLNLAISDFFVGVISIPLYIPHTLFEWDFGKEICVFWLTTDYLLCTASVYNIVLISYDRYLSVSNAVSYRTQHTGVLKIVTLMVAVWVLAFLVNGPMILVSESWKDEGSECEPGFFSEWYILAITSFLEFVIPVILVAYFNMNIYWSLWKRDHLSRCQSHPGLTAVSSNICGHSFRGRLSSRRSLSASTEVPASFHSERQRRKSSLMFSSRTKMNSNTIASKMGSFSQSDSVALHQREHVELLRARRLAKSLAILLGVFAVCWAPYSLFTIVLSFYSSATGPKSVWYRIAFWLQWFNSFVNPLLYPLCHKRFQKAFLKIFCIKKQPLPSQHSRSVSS
# human H3R = human H3R (Homo sapiens, UniProt Q9Y5N1); assay: Human H3R radioligand displacement assay; details: for inhibition at 1 µM: read-out: hH3R Inhibition at 1 µM [%] ±SD (n)
# Chain of human H3R (Q9Y5N1 whole entry): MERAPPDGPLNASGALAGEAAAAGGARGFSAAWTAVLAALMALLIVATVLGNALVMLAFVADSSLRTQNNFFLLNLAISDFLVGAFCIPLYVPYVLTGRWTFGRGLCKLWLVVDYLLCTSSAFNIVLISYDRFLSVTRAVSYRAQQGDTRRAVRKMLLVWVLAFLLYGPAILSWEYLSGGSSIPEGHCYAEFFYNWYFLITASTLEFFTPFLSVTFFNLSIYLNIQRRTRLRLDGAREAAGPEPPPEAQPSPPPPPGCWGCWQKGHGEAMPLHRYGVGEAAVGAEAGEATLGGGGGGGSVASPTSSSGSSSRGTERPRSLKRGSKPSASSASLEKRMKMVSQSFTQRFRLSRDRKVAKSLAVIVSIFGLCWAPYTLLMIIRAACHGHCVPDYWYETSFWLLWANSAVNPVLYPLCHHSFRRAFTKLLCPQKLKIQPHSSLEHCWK
# Chain of human H1R (P35367 whole entry): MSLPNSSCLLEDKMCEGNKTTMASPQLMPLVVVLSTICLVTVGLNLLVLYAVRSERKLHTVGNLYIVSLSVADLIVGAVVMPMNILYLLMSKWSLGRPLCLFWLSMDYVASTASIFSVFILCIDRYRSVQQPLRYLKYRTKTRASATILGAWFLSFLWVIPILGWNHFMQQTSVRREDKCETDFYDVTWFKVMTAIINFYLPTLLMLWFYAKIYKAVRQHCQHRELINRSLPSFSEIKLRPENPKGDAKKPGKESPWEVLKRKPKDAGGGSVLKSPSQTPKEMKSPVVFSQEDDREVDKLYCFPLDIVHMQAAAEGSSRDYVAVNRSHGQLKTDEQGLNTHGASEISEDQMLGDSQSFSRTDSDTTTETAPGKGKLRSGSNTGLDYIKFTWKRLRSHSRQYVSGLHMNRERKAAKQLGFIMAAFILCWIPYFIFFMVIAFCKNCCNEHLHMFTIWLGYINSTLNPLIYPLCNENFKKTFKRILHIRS
Structure (SMILES),inhibition at 10 µM (human H1R) [%],IC50 (human AChE) [µM],inhibition at 10 µM (human AChE) [%],inhibition at 10 µM (human H4R) [%],inhibition at 1 µM (human H3R) [%],inhibition at 1 µM (human H1R) [%],Ki (human H3R) [nM]
"O=C(NC1CC1)c1nc2ccc(OCCCCNC3CC3)cc2s1 [Compound 3m, N-Cyclopropyl-6-(4-(cyclopropylamino)butoxy)benzo[d]thiazole-2-carboxamide]",27 ± 10.6,> 10,13.2 ± 8.07,53.6 ± 11.1,67.8 ± 2.5,–,–
"O=C(NC1CC1)c1nc2ccc(OCCCNC3CC3)cc2s1 [Compound 3g, N-Cyclopropyl-6-(3-(cyclopropylamino)propoxy)benzo[d]thiazole-2-carboxamide]",13.6 ± 10.7,> 10,15.4 ± 11.2,30.2 ± 14.3,27.7 ± 12.8,–,–
"CC1CN(CCCOc2ccc3nc(C(=O)N4CCNC(C)C4)sc3c2)CCN1 (stereo not shown) [Compound 4h, (3-Methylpiperazin-1-yl)(6-(3-(3-methylpiperazin-1-yl)propoxy)benzo[d]thiazol-2-yl)methanone]",–,> 10,8.3 ± 1.02,–,–,18.4 ± 27,470
"O=C(NC1CCCCCC1)c1nc2ccc(OCCCCCNC3CCCCCC3)cc2s1 [Compound 3p, N-Cycloheptyl-6-((5-(cycloheptylamino)pentyl)oxy)benzo[d]thiazole-2-carboxamide]",17.5 ± 8.4,> 10,9.5 ± 3.58,58.4 ± 8.3,34 ± 7.5,–,–
"COC(=O)c1nc2ccc(OCCN3CCCCC3)cc2s1 [Compound 1e, Methyl 6-(2-(piperidin-1-yl)ethoxy)benzo[d]thiazole-2-carboxylate]",16.3 ± 41.7,2.92 ± 0.37,84 ± 4.25,–,54.2 ± 28.4,–,–
"O=C(NC1CC1)c1nc2ccc(OCCCCCNC3CC3)cc2s1 [Compound 3r, N-Cyclopropyl-6-((5-(cyclopropylamino)pentyl)oxy)benzo[d]thiazole-2-carboxamide]",23.7 ± 12.7,> 10,14.8 ± 6.73,51.6 ± 15.8,38.8 ± 9.7,–,–
"CN1CCN(CCCOc2ccc3nc(C(=O)N4CCN(C)CC4)sc3c2)CC1 [Compound 4g, (4-Methylpiperazin-1-yl)(6-(3-(4-methylpiperazin-1-yl)propoxy)benzo[d]thiazol-2-yl)methanone]",–,> 10,7.7 ± 1.87,–,–,4.8 ± 37.7,> 1000
"CCOC(=O)c1nc2ccc(OCCN3CCCC3)cc2s1 [Compound 1c, Ethyl 6-(2-(pyrrolidin-1-yl)ethoxy)benzo[d]thiazole-2-carboxylate]",1 ± 9.7,7.63 ± 1.6,57.2 ± 5.41,54 ± 12.1,50.2 ± 10.9,–,–
"CCN1CCN(CCCOc2ccc3nc(C(=O)N4CCN(CC)CC4)sc3c2)CC1 [Compound 4f, (4-Ethylpiperazin-1-yl)(6-(3-(4-ethylpiperazin-1-yl)propoxy)benzo[d]thiazol-2-yl)methanone]",–,> 10,8.2 ± 1.64,–,–,3 ± 36,430
"O=C(NCC1CCCCC1)c1nc2ccc(OCCCCNCC3CCCCC3)cc2s1 [Compound 3l, N-(Cyclohexylmethyl)-6-(4-((cyclohexylmethyl)amino)butoxy)benzo[d]thiazole-2-carboxamide]",14.7 ± 8.5,> 10,16.7 ± 7.79,49.7 ± 41,57.3 ± 12.7,–,–
"COC(=O)c1nc2ccc(OCCCN[C@@H](Cc3ccc(O)cc3)C(=O)OC)cc2s1 [Compound 2a, Methyl (S)-6-(3-((3-(4-hydroxyphenyl)-1-methoxy-1-oxopropan-2-yl)amino)propoxy)benzo[d]thiazole-2-carboxylate]",< 0,> 10,< 0,35.5 ± 32.1,54.8 ± 21.2,–,–
"COC(=O)c1nc2ccc(OCCN3CCOCC3)cc2s1 [Compound 1d, Methyl 6-(2-morpholinoethoxy)benzo[d]thiazole-2-carboxylate]",11.2 ± 10.5,> 10,5.52 ± 6.39,51.3 ± 18.2,25.3 ± 5.4,–,–
"O=C(NC1CCCCCC1)c1nc2ccc(OCCCNC3CCCCCC3)cc2s1 [Compound 3e, N-Cycloheptyl-6-(3-(cycloheptylamino)propoxy)benzo[d]thiazole-2-carboxamide]",12.1 ± 18.3,> 10,7.3 ± 2.31,53.5 ± 15.2,35.7 ± 11.5,–,–
"O=C(NC1CCCCCC1)c1nc2ccc(OCCCCNC3CCCCCC3)cc2s1 [Compound 3k, N-Cycloheptyl-6-(4-(cycloheptylamino)butoxy)benzo[d]thiazole-2-carboxamide]",14.2 ± 11.7,> 10,9.7 ± 4.91,61.5 ± 8.9,39 ± 8.9,–,–
"O=C(NC1CCCC1)c1nc2ccc(OCCCNC3CCCC3)cc2s1 [Compound 3i, N-Cyclopentyl-6-(3-(cyclopentylamino)propoxy)benzo[d]thiazole-2-carboxamide]",35.5 ± 9.8,7.31 ± 1.59,59 ± 6.16,50.5 ± 13,51.2 ± 8.7,–,–
"O=C(c1nc2ccc(OCCCN3CCc4ccccc4C3)cc2s1)N1CCc2ccccc2C1 [Compound 4e, (3,4-Dihydroisoquinolin-2(1H)-yl)(6-(3-(3,4-dihydroisoquinolin-2(1H)-yl)propoxy)benzo[d]thiazol-2-yl)methanone]",–,> 10,6.2 ± 3.15,–,–,9.7 ± 23,340
"O=C(NCC1CCCCC1)c1nc2ccc(OCCNCC3CCCCC3)cc2s1 [Compound 3c, N-(Cyclohexylmethyl)-6-(2-((cyclohexylmethyl)amino)ethoxy)benzo[d]thiazole-2-carboxamide]",5.3 ± 14.2,> 10,< 0,52.8 ± 11.8,31.5 ± 11.4,–,–
"CCOC(=O)c1nc2ccc(OCCN3CCCCC3)cc2s1 [Compound 1b, Ethyl 6-(2-(piperidin-1-yl)ethoxy)benzo[d]thiazole-2-carboxylate]",< 0,> 10,9.25 ± 7.88,61.7 ± 35.4,35.2 ± 14.4,–,–
"O=C(NCCc1ccccc1)c1nc2ccc(OCCCNCCc3ccccc3)cc2s1 [Compound 4d, N-Phenethyl-6-(3-(phenethylamino)propoxy)benzo[d]thiazole-2-carboxamide]",–,> 10,5.2 ± 2.36,–,–,10.9 ± 37.1,> 1000
"CC1CC(C)CN(CCCOc2ccc3nc(C(=O)N4CC(C)CC(C)C4)sc3c2)C1 (stereo not shown) [Compound 4c, (3,5-Dimethylpiperidin-1-yl)(6-(3-(3,5-dimethylpiperidin-1-yl)propoxy)benzo[d]thiazol-2-yl)methanone]",–,> 10,6.9 ± 1.67,–,–,26.8 ± 31,340
"O=C(NCC1CCCCC1)c1nc2ccc(OCCCCCNCC3CCCCC3)cc2s1 [Compound 3q, N-(Cyclohexylmethyl)-6-((5-((cyclohexylmethyl)amino)pentyl)oxy)benzo[d]thiazole-2-carboxamide]",40.6 ± 8.2,> 10,22.2 ± 5.5,49.1 ± 22.8,–,–,> 3000
"CC1CCN(CCCOc2ccc3nc(C(=O)N4CCC(C)CC4)sc3c2)CC1 [Compound 4l, (4-Methylpiperidin-1-yl)(6-(3-(4-methylpiperidin-1-yl)propoxy)benzo[d]thiazol-2-yl)methanone]",–,> 10,8.4 ± 0.51,–,–,26.8 ± 26.3,430
"CC(=O)N1CCN(CCCOc2ccc3nc(C(=O)N4CCN(C(C)=O)C(C)C4)sc3c2)CC1C (stereo not shown) [Compound 4m, 1-(4-(6-(3-(4-Acetyl-3-methylpiperazin-1-yl)propoxy)benzo[d]thiazole-2-carbonyl)-2-methylpiperazin-1-yl)ethan-1-one]",–,> 10,2.4 ± 2.06,–,–,27 ± 27.6,400
"O=C(NCC1CCCCC1)c1nc2ccc(OCCCNCC3CCCCC3)cc2s1 [Compound 3f, N-(Cyclohexylmethyl)-6-(3-((cyclohexylmethyl)amino)propoxy)benzo[d]thiazole-2-carboxamide]",47.6 ± 12.9,> 10,3.2 ± 3.69,60.8 ± 30.4,46.3 ± 14.7,–,–
"O=C(c1nc2ccc(OCCCN3CCN(CCO)CC3)cc2s1)N1CCN(CCO)CC1 [Compound 4i, (4-(2-Hydroxyethyl)piperazin-1-yl)(6-(3-(4-(2-hydroxyethyl)piperazin-1-yl)propoxy)benzo[d]thiazol-2-yl)methanone]",–,> 10,7.3 ± 2.77,–,–,22.5 ± 27.4,120
"O=C(NCc1ccccc1)c1nc2ccc(OCCCNCc3ccccc3)cc2s1 [Compound 4j, N-Benzyl-6-(3-(benzylamino)propoxy)benzo[d]thiazole-2-carboxamide]",–,> 10,20.3 ± 3.55,–,–,27 ± 39.4,640
"CCOC(=O)c1nc2ccc(OCCN3CCOCC3)cc2s1 [Compound 1a, Ethyl 6-(2-morpholinoethoxy)benzo[d]thiazole-2-carboxylate]",< 0,> 10,7.64 ± 7.33,39.2 ± 34.7,63.3 ± 4.2,–,–
"O=C(c1nc2ccc(OCCN3CCCCC3)cc2s1)N1CCCCC1 [Compound 3a, Piperidin-1-yl-(6-(2-(piperidin-1-yl)ethoxy)benzo[d]thiazol-2-yl)methanone]",< 0,> 10,35.5 ± 13.4,30.3 ± 24.9,68 ± 9.1,–,> 1000
